Data: PubChem BioAssay AID256 (DTP/NCI, 2004)
Values joined by “and” are separate entries in the source; they are usually repeats but may differ in a detail not shown here. Equal values may be shown once. Toxic doses and inconclusive results are not listed. Rule for the calls: active = survival T/C of 150% or more; inactive = T/C below 125% in these data.

Tested on: CD2F1 mice, L1210 leukemia ip, survival T/C
Test: NCI In Vivo Anticancer Drug Screen. Data for tumor model L1210 Leukemia (intraperitoneal) in CD2F1 (CDF1) mice
Details: higher = longer survival
Summary of the method: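 Compound-dosed mice with transplantable tumor versus matched vehicle controls; endpoint ratio T/C reported.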

[1] = endpoint: mean survival time, dose: 50.0 mg/kg/injection, schedule: Q01DX009 (ip), vehicle: saline
[2] = endpoint: mean survival time, dose: 100.0 mg/kg/injection, schedule: Q04DX002 (ip), vehicle: saline with Tween-80
[3] = endpoint: mean survival time, dose: 200.0 mg/kg/injection, schedule: Q04DX002 (ip), vehicle: saline with Tween-80
[4] = endpoint: mean survival time, dose: 100.0 mg/kg/injection, schedule: Q01DX009 (ip), vehicle: saline
[5] = endpoint: mean survival time, dose: 100.0 mg/kg/injection, schedule: Q04DX003 (ip), vehicle: saline with Tween-80
[6] = endpoint: mean survival time, dose: 200.0 mg/kg/injection, schedule: Q04DX003 (ip), vehicle: saline with Tween-80
[7] = endpoint: mean survival time, dose: 400.0 mg/kg/injection, schedule: Q04DX003 (ip), vehicle: saline with Tween-80
[8] = endpoint: mean survival time, dose: 100.0 mg/kg/injection, schedule: Q01DX009 (ip), vehicle: saline with Tween-80
[9] = endpoint: mean survival time, dose: 200.0 mg/kg/injection, schedule: Q01DX009 (ip), vehicle: saline with Tween-80
[10] = endpoint: mean survival time, dose: 25.0 mg/kg/injection, schedule: Q01DX009 (ip), vehicle: saline with Tween-80
[11] = endpoint: mean survival time, dose: 50.0 mg/kg/injection, schedule: Q01DX009 (ip), vehicle: saline with Tween-80
[12] = endpoint: mean survival time, dose: 400.0 mg/kg/injection, schedule: Q01DX009 (ip), vehicle: saline with Tween-80
[13] = endpoint: mean survival time, dose: 50.0 mg/kg/injection, schedule: Q04DX002 (ip), vehicle: saline with Tween-80

Measured: T/C

CCC[CH2][Sn]1([CH2]CCC)[O]C2C(CO)OC(n3c(Br)c(C(N)=O)c4c(N)ncnc43)C2[O]1 (centres undefined)
inactive: endpoint: mean survival time, dose: 1.56 mg/kg/injection, schedule: Q01DX009 (ip), vehicle: distilled water + Tween-80 100 % of control | endpoint: mean survival time, dose: 3.13 mg/kg/injection, schedule: Q01DX009 (ip), vehicle: distilled water + Tween-80 107 % of control

C1CNC(SCCOCCOCCSC2=NCCN2)=N1
inactive: endpoint: mean survival time, dose: 12.5 mg/kg/injection, schedule: Q01DX009 (ip), vehicle: saline 97 % of control | endpoint: mean survival time, dose: 25.0 mg/kg/injection, schedule: Q01DX009 (ip), vehicle: saline 97 % of control | [1] 100 % of control

CCC(CNCCC(=O)O)(C(=O)O)C(=O)O
inactive: [2] 98 % of control | [3] 98 % of control | endpoint: mean survival time, dose: 400.0 mg/kg/injection, schedule: Q04DX002 (ip), vehicle: saline with Tween-80 90 % of control

CC1(C)OCC(COCc2ccccc2)O1 (centres undefined)
inactive: [4] 96 % of control | endpoint: mean survival time, dose: 200.0 mg/kg/injection, schedule: Q01DX009 (ip), vehicle: saline 91 % of control | endpoint: mean survival time, dose: 400.0 mg/kg/injection, schedule: Q01DX009 (ip), vehicle: saline 96 % of control

CCOC(=O)C1=C(Nc2ccc(OC)cc2)C(N)=NC1=N
inactive: endpoint: median survival time, dose: 6.25 mg/kg/injection, schedule: Q01DX005 (ip), vehicle: suspension in saline 98 % of control | endpoint: median survival time, dose: 12.5 mg/kg/injection, schedule: Q01DX005 (ip), vehicle: suspension in saline 101 % of control and 107 % of control | endpoint: median survival time, dose: 25.0 mg/kg/injection, schedule: Q01DX005 (ip), vehicle: suspension in saline 101 % of control and 107 % of control | endpoint: median survival time, dose: 36.0 mg/kg/injection, schedule: Q01DX005 (ip), vehicle: saline 105 % of control and 108 % of control | endpoint: median survival time, dose: 50.0 mg/kg/injection, schedule: Q01DX005 (ip), vehicle: saline 111 % of control | endpoint: median survival time, dose: 50.0 mg/kg/injection, schedule: Q01DX005 (ip), vehicle: suspension in saline 101 % of control and 107 % of control | endpoint: median survival time, dose: 60.0 mg/kg/injection, schedule: Q01DX005 (ip), vehicle: saline 102 % of control | endpoint: median survival time, dose: 100.0 mg/kg/injection, schedule: Q01DX005 (ip), vehicle: saline 106 % of control | endpoint: median survival time, dose: 100.0 mg/kg/injection, schedule: Q01DX005 (ip), vehicle: suspension in saline 117 % of control

O=C(O)COC(C[N+](=O)[O-])C(Cl)(Cl)Cl (centres undefined)
inactive: [5] 93 % of control | [6] 104 % of control | [7] 98 % of control

COC(=O)C12OCC34C(CC5C(C)C6=CC(=O)OC6=CC5(C)C3C(O)C1O)OC(=O)C(OC(C)=O)C24 (centres undefined)
inactive: endpoint: median survival time, dose: 0.13 mg/kg/injection, schedule: Q01DX009 (ip), vehicle: saline + alcohol 98 % of control | endpoint: median survival time, dose: 0.25 mg/kg/injection, schedule: Q01DX009 (ip), vehicle: saline + alcohol 98 % of control | endpoint: median survival time, dose: 0.5 mg/kg/injection, schedule: Q01DX009 (ip), vehicle: saline + alcohol 98 % of control | endpoint: median survival time, dose: 1.0 mg/kg/injection, schedule: Q01DX009 (ip), vehicle: saline + alcohol 100 % of control | endpoint: median survival time, dose: 2.0 mg/kg/injection, schedule: Q01DX009 (ip), vehicle: saline + alcohol 102 % of control and 103 % of control | endpoint: median survival time, dose: 4.0 mg/kg/injection, schedule: Q01DX009 (ip), vehicle: saline + alcohol 102 % of control | endpoint: median survival time, dose: 8.0 mg/kg/injection, schedule: Q01DX009 (ip), vehicle: saline + alcohol 94 % of control | endpoint: median survival time, dose: 16.0 mg/kg/injection, schedule: Q01DX009 (ip), vehicle: saline + alcohol 96 % of control

C=C1C[C@@H](O)C[C@@]2(C)C[C@@H]3OC(=O)C(=C)[C@@H]3C[C@H]12
inactive: [8] 104 % of control | [9] 111 % of control

ClCc1ccc2ccccc2n1
inactive: [8] 109 % of control | [5] 104 % of control | [9] 104 % of control | [6] 104 % of control | [7] 101 % of control

CC1CNC(=S)O1 (centres undefined)
inactive: [10] 102 % of control | [11] 100 % of control | [8] 97 % of control and 103 % of control | [5] 100 % of control | [9] 97 % of control and 95 % of control | [6] 97 % of control | [12] 97 % of control and 106 % of control | [7] 103 % of control

COc1ccc(/C=C(\C#N)c2ccc(C)cc2)cc1OC
inactive: [8] 101 % of control | [9] 108 % of control | [12] 107 % of control

CC(=O)Nc1ccc(S(=O)(=O)CBr)cc1
inactive: endpoint: mean survival time, dose: 100.0 mg/kg/injection, schedule: Q01DX001 (ip), vehicle: saline 102 % of control | endpoint: mean survival time, dose: 200.0 mg/kg/injection, schedule: Q01DX001 (ip), vehicle: saline 97 % of control | endpoint: mean survival time, dose: 400.0 mg/kg/injection, schedule: Q01DX001 (ip), vehicle: saline 96 % of control

CN(C)CC1CCCCCC(Br)C1O (centres undefined)
inactive: endpoint: mean survival time, dose: 75.0 mg/kg/injection, schedule: Q01DX001 (ip), vehicle: saline 100 % of control | endpoint: mean survival time, dose: 150.0 mg/kg/injection, schedule: Q01DX001 (ip), vehicle: saline 94 % of control

O=C(O)C1C2OC(C(Br)C2Br)C1C(=O)O (centres undefined)
inactive: [1] 102 % of control | [4] 104 % of control

O=C(CC(=O)Nc1ccc([N+](=O)[O-])cc1)Nc1ccc([N+](=O)[O-])cc1
inactive: [8] 91 % of control | [9] 86 % of control | [12] 89 % of control

Cc1ccc(S(=O)(=O)NC(=O)OC23COCN2COC3)cc1
inactive: endpoint: mean survival time, dose: 12.5 mg/kg/injection, schedule: Q01DX009 (ip), vehicle: saline with Tween-80 96 % of control and 101 % of control | [10] 96 % of control and 102 % of control | [11] 97 % of control and 101 % of control | [8] 117 % of control and 102 % of control | [9] 113 % of control and 108 % of control | [12] 113 % of control and 105 % of control

Cc1ccc(C(=O)[O][Hg][CH2]C2COC([CH2][Hg][O]C(=O)c3ccc(C)cc3)CO2)cc1 (centres undefined)
inactive: endpoint: mean survival time, dose: 3.12 mg/kg/injection, schedule: Q01DX009 (ip), vehicle: Klucel (hydroxypropylcellulose) (HPC) 100 % of control and 106 % of control | endpoint: mean survival time, dose: 6.25 mg/kg/injection, schedule: Q01DX009 (ip), vehicle: Klucel (hydroxypropylcellulose) (HPC) 101 % of control and 105 % of control | endpoint: mean survival time, dose: 12.5 mg/kg/injection, schedule: Q01DX009 (ip), vehicle: Klucel (hydroxypropylcellulose) (HPC) 98 % of control and 108 % of control | endpoint: mean survival time, dose: 25.0 mg/kg/injection, schedule: Q01DX009 (ip), vehicle: Klucel (hydroxypropylcellulose) (HPC) 98 % of control and 108 % of control | endpoint: mean survival time, dose: 50.0 mg/kg/injection, schedule: Q01DX009 (ip), vehicle: Klucel (hydroxypropylcellulose) (HPC) 104 % of control

Cc1ccc([N+](=O)[O-])cc1NC(=O)Nc1cc([N+](=O)[O-])ccc1O
inactive: [8] 91 % of control | [9] 96 % of control | [12] 107 % of control

NN=C(c1ccccc1)c1ccccc1
inactive: endpoint: mean survival time, dose: 150.0 mg/kg/injection, schedule: Q04DX003 (ip), vehicle: Klucel (hydroxypropylcellulose) (HPC) 93 % of control | endpoint: mean survival time, dose: 225.0 mg/kg/injection, schedule: Q04DX003 (ip), vehicle: Klucel (hydroxypropylcellulose) (HPC) 95 % of control | endpoint: mean survival time, dose: 335.0 mg/kg/injection, schedule: Q04DX003 (ip), vehicle: Klucel (hydroxypropylcellulose) (HPC) 98 % of control

O=C1C2(c3ccccc3)CCC1(c1ccccc1)C(c1ccccc1)=C2c1ccccc1
inactive: endpoint: mean survival time, dose: 25.0 mg/kg/injection, schedule: Q01DX001 (ip), vehicle: saline with Tween-80 94 % of control | endpoint: mean survival time, dose: 50.0 mg/kg/injection, schedule: Q01DX001 (ip), vehicle: saline with Tween-80 87 % of control | endpoint: mean survival time, dose: 100.0 mg/kg/injection, schedule: Q01DX001 (ip), vehicle: saline with Tween-80 90 % of control

Cc1ccc(S(=O)(=O)C[n+]2ccc(C(=O)c3ccccc3)cc2)cc1
inactive: endpoint: mean survival time, dose: 25.0 mg/kg/injection, schedule: Q04DX002 (ip), vehicle: saline with Tween-80 90 % of control | [13] 97 % of control | [2] 97 % of control and 104 % of control

O=C([O][Sb]([O]C(=O)C(F)(F)F)([c]1ccccc1)([c]1ccccc1)[c]1ccccc1)C(F)(F)F
inactive: [13] 93 % of control | [2] 93 % of control | [3] 97 % of control

C1=CC2OC1c1cc3ccccc3cc12
inactive: endpoint: mean survival time, dose: 100.0 mg/kg/injection, schedule: Q04DX003 (ip), vehicle: other 121 % of control | endpoint: mean survival time, dose: 200.0 mg/kg/injection, schedule: Q04DX003 (ip), vehicle: other 105 % of control

CCCCCCCCCCCCNC(=O)C[N+](C)(C)Cc1ccc2c(c1)CCCC2
inactive: endpoint: mean survival time, dose: 5.0 mg/kg/injection, schedule: Q04DX003 (ip), vehicle: saline with Tween-80 95 % of control | endpoint: mean survival time, dose: 10.0 mg/kg/injection, schedule: Q04DX003 (ip), vehicle: saline with Tween-80 105 % of control

CC1OC(O)CC(NC(=O)C(F)(F)F)C1O (centres undefined)
inactive: endpoint: mean survival time, dose: 25.0 mg/kg/injection, schedule: Q01DX005 (ip), vehicle: water 98 % of control | endpoint: mean survival time, dose: 50.0 mg/kg/injection, schedule: Q01DX005 (ip), vehicle: water 95 % of control | endpoint: mean survival time, dose: 100.0 mg/kg/injection, schedule: Q01DX005 (ip), vehicle: water 98 % of control | endpoint: mean survival time, dose: 200.0 mg/kg/injection, schedule: Q01DX005 (ip), vehicle: water 107 % of control | endpoint: mean survival time, dose: 400.0 mg/kg/injection, schedule: Q01DX005 (ip), vehicle: water 98 % of control
